These results are taken from ChEMBL document CHEMBL5244205, “Discovery of tricyclic dipyrrolopyridine derivatives as novel JAK inhibitors” (Bioorg Med Chem, 2017).

As a reminder, the Cmax is the maximum level reached in the sampled fluid or tissue. By IC50 is commonly meant the concentration that gives 50% inhibition. A low value points to higher potency.

A short description of series [1]: Cmax in Sprague-Dawley rat at 1 mg/kg, po measured up to 24 hrs by LC-MS/MS analysis. Details: time < 24 hrs, dose 1 mg/kg, route po. To be noted: in vivo. The format is ADME, organism-based.
Series [2] deals with Tyrosine-protein kinase JAK2 (Homo sapiens, UniProt O60674).
Tyrosine-protein kinase JAK2, sequence (O60674 whole entry): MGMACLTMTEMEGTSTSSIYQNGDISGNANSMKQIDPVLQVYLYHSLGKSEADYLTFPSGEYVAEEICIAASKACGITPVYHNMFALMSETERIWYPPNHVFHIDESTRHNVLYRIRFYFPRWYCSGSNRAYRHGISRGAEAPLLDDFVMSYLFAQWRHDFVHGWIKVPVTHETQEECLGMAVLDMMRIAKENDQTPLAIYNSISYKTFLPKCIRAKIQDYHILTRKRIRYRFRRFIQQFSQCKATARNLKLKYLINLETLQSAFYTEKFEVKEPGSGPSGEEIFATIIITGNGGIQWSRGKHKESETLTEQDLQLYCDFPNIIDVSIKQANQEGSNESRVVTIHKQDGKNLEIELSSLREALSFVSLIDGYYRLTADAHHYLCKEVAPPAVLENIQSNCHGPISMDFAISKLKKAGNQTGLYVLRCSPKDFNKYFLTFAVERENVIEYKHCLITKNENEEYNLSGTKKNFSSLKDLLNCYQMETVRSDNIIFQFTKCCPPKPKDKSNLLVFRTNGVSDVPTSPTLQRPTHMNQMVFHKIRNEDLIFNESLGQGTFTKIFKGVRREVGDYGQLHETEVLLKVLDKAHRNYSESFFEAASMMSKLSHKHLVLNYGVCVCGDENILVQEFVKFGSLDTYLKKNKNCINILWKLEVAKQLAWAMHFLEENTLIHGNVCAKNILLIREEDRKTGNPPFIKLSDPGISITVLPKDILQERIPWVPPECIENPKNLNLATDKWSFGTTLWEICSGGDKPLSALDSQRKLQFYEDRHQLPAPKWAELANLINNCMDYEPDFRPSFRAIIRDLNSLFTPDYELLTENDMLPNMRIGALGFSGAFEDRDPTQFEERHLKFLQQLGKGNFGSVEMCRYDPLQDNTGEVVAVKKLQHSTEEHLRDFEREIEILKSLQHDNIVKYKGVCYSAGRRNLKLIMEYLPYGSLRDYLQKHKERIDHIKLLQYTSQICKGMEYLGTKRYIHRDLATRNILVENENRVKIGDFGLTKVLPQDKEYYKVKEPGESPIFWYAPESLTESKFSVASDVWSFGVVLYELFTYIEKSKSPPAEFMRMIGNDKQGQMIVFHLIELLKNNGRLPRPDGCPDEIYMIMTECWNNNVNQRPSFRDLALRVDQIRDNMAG
Description: Inhibition of human JAK2 kinase domain using biotin-Lyn-substrate-2 as substrate incubated for 1 hr by ELISA
Series [3] deals with Tyrosine-protein kinase CSK (Homo sapiens, UniProt P41240). The experiment in a line: Inhibition of CSK (unknown origin).
Tyrosine-protein kinase CSK, sequence (P41240 whole entry): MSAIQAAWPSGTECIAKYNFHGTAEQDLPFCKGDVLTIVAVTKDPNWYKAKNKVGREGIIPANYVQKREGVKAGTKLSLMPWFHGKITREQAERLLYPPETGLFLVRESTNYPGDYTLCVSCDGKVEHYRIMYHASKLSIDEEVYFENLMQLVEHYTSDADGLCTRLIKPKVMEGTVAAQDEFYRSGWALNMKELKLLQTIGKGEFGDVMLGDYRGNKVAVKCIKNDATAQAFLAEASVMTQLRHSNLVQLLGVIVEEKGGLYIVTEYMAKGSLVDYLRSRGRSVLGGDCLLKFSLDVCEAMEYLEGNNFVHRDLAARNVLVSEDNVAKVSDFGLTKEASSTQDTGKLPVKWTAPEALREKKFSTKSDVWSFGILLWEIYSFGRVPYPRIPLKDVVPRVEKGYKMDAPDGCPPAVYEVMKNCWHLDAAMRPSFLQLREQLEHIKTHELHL
Series [4] concerns the target Epidermal growth factor receptor (Homo sapiens, UniProt P00533). The experiment in a line: Inhibition of EGFR (unknown origin).
In series [5] the target is Tyrosine-protein kinase ITK/TSK (Homo sapiens, UniProt Q08881). The experiment in a line: Inhibition of ITK (unknown origin).
Series [6] in a line: Inhibition of SYK (unknown origin). Further details: species or system Homo sapiens.
For series [7], the target named is High affinity nerve growth factor receptor (Homo sapiens, UniProt P04629). Put plainly: Inhibition of TRKA (unknown origin).
High affinity nerve growth factor receptor, sequence (P04629 whole entry): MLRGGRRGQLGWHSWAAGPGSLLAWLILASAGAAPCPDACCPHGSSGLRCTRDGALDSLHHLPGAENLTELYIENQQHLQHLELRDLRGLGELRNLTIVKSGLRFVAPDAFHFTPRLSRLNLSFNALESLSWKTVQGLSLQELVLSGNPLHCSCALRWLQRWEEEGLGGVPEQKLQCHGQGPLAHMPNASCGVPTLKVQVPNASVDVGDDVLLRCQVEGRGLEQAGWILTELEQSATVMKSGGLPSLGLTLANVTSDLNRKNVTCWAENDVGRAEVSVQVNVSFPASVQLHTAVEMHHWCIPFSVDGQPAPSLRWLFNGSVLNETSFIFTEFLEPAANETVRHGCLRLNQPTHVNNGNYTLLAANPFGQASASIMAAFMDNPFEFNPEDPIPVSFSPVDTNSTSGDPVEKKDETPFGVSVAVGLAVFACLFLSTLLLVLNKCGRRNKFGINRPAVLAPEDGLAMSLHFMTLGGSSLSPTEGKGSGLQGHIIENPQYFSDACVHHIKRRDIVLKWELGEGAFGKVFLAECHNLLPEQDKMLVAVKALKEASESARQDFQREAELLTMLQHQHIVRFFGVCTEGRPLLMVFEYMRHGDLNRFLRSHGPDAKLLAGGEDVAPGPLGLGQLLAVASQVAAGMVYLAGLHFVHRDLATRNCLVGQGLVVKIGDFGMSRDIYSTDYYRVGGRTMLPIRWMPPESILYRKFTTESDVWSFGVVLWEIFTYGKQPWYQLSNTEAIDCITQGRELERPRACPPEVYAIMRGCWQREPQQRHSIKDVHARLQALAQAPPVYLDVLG
In series [8] the target is RAC-alpha serine/threonine-protein kinase (Homo sapiens, UniProt P31749). Put plainly: Inhibition of AKT1 (unknown origin).
The target in series [9] is Cyclin-dependent kinase 2 (Homo sapiens, UniProt P24941). Put plainly: Inhibition of CDK2 (unknown origin).
Series [10] deals with Casein kinase I isoform delta (Homo sapiens, UniProt P48730). Put plainly: Inhibition of CHKdelta (unknown origin).
Casein kinase I isoform delta, sequence (P48730 whole entry, canonical isoform): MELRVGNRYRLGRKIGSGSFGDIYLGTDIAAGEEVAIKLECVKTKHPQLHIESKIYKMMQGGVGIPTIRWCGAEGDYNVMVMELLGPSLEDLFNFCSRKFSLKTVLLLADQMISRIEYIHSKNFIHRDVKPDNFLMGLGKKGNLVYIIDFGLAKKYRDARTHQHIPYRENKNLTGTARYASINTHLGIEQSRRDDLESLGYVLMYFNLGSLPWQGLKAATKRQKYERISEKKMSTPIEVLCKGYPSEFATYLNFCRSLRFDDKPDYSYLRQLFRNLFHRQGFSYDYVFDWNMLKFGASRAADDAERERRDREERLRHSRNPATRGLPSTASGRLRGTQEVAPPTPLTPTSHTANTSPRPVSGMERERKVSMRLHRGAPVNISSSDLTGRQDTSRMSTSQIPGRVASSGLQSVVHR
For series [11], the target named is Mitogen-activated protein kinase 11 (Homo sapiens, UniProt Q15759). Put plainly: Inhibition of P38beta (unknown origin).
Mitogen-activated protein kinase 11, sequence (Q15759 whole entry): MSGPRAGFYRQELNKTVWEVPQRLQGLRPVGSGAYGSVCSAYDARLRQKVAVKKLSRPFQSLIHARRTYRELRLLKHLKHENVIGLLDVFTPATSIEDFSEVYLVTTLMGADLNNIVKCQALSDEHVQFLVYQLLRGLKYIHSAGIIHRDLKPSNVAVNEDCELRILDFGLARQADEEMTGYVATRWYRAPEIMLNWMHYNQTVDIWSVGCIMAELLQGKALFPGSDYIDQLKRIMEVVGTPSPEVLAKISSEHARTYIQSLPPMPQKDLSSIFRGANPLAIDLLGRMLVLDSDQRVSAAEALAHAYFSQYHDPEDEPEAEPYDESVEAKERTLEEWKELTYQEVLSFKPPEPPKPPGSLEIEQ
The target of series [12] is RAF proto-oncogene serine/threonine-protein kinase (Homo sapiens, UniProt P04049). Put plainly: Inhibition of RAF1 (unknown origin).
RAF proto-oncogene serine/threonine-protein kinase, sequence (P04049 whole entry): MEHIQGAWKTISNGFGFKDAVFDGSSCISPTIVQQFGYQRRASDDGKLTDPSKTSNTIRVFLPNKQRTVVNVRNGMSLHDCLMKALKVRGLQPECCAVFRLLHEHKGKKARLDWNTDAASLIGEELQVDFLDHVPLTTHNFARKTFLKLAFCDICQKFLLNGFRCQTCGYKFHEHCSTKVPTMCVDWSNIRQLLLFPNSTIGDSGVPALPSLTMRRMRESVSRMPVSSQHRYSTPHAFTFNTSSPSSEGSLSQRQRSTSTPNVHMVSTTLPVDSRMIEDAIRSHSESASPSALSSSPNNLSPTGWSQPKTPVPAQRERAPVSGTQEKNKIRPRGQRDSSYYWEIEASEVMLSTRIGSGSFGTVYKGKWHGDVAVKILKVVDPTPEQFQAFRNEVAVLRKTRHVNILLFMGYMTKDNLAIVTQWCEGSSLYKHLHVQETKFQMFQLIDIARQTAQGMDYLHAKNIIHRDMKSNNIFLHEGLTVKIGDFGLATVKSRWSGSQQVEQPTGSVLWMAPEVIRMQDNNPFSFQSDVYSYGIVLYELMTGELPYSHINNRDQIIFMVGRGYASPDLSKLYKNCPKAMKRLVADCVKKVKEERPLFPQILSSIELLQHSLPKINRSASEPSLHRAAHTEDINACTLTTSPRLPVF
Series [13] deals with T1, Tyrosine-protein kinase JAK3 (Homo sapiens, UniProt P52333).
T1 sequence (P52333 whole entry): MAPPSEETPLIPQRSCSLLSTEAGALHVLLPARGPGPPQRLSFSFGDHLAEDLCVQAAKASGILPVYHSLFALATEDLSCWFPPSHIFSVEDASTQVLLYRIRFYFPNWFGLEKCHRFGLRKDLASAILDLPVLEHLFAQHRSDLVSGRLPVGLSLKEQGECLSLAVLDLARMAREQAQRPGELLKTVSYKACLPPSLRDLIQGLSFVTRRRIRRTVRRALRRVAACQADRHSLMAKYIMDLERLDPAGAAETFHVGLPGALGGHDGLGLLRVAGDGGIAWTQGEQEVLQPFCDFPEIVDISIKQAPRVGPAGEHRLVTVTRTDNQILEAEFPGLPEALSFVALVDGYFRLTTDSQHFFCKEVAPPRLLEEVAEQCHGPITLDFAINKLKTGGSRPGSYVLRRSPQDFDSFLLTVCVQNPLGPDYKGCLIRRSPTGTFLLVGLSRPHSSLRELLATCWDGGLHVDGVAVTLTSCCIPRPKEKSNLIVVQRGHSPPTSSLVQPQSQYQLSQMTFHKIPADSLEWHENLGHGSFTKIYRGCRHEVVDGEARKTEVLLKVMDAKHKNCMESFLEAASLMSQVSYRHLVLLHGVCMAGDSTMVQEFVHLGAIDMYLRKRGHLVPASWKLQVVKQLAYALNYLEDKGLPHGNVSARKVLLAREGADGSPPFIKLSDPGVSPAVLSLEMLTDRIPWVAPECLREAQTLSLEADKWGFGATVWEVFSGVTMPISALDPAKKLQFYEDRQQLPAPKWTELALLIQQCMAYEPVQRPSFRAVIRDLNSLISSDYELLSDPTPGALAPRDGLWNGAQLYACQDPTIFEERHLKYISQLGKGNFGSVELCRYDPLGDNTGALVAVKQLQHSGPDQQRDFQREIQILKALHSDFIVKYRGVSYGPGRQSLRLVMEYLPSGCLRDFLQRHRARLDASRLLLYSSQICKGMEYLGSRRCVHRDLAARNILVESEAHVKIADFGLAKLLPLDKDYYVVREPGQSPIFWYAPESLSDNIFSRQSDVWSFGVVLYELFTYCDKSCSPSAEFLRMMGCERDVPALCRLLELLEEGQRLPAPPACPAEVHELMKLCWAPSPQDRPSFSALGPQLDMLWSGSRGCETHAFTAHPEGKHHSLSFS
Description: Inhibition of human JAK3 kinase domain using biotin-Lyn-substrate-2 as substrate incubated for 1 hr by ELISA

For series [14] the following is noted: pampa, pH 6.5, 2 h.
Description: Permeability of the compound in pH 6.5 incubated for 2 hrs by PAMPA based HPLC analysis
A further series in a line: cells. To be noted: Rattus norvegicus, Lewis, Splenocyte, 72 h.

Epidermal growth factor receptor, sequence (P00533 whole entry): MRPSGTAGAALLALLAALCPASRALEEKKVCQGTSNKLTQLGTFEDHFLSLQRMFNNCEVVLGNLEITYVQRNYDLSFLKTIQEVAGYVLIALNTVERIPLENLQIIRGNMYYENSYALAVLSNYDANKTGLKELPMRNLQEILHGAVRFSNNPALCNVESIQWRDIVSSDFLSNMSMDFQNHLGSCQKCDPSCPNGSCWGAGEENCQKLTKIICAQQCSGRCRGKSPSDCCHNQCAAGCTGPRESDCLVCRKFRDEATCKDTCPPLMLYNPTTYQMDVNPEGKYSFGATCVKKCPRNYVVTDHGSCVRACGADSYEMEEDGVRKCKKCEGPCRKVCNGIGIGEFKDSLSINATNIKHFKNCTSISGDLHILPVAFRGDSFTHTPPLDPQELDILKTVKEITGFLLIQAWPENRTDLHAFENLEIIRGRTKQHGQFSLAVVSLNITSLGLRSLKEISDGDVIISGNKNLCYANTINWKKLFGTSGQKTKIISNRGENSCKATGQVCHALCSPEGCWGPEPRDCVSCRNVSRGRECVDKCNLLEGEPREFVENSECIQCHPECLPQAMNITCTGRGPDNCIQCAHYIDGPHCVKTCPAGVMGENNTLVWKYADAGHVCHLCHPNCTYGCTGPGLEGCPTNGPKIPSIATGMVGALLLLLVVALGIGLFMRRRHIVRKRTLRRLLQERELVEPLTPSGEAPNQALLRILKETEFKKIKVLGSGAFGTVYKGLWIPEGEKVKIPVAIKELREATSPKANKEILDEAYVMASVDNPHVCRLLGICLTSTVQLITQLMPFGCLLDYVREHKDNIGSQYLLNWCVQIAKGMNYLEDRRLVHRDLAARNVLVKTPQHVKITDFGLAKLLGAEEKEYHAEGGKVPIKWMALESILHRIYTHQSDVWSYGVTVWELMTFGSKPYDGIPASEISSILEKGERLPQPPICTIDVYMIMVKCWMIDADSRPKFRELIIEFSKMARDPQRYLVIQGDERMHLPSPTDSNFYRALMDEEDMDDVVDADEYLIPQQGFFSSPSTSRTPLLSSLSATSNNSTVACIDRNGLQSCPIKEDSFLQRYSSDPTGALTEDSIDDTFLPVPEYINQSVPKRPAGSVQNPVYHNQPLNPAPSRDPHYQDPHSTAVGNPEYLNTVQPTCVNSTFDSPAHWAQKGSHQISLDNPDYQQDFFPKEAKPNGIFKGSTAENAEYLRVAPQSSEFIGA
Description for cells: Immunosuppressive activity in Lewis rat splenocytes assessed as inhibition of concanavalin A-induced IL-2 receptor expression incubated for 3 days by alamarBlue assay

On to `C[C@@H]1CCN(C(=O)CC#N)C[C@@H]1n1ccc2cnc3[nH]ccc3c21`, for which, in series [1], the peak level (Cmax) was 260 ng/mL. For the same compound, the half-inhibitory concentration (IC50) in series [2] was 0.3 nM; in series [3], above 1000 nM; in series [4], above 1000 nM; in [5], above 1000 nM; in series [6], above 1000 nM; in series [7] it was above 1000 nM. In addition, the IC50 in series [8] was above 1000 nM; in [9], above 1000 nM; in series [10], above 1000 nM; in series [11] it was above 1000 nM; in series [12], above 1000 nM; in [13], 0.14 nM. Half-maximal inhibition in the series “cells” (IC50) required 4.3 nM. For the same compound, the permeability in series [14] was 20 10^-6 cm/s.
